From paper PMC8362273 (Molecular cell, 2020)
“Also recorded” adds a separate entry of the source. Like-named read-outs stand apart in the source and are kept apart here.

Key:
[1] = system: Gsk(K383A); assay type: biochemical, E. coli; conditions: Figure 2F, S4A
[2] = system: Gsk; conditions: ref Kawasaki et al., 2000, cited from earlier work; for Km: Mori et al., 1995
[3] = biological target: Gsk (inosine-guanosine kinase) (Escherichia coli, UniProt P0AEW6); assay: Isothermal titration calorimetry; assay type: binding, E. coli
[4] = system: Gsk; assay: Inosine/guanosine kinase; assay type: biochemical, E. coli
[5] = system: Gsk; assay: Inosine kinase; assay type: biochemical, E. coli; conditions: GuaB-coupled assay (Figure 1C)
[6] = system: GuaB (IMP dehydrogenase); assay: IMP-dehydrogenase; assay type: biochemical, E. coli; conditions: ppGpp up to 1 mM (Figure S1B)
[7] = biological target: PurA (adenylosuccinate synthase) (Escherichia coli, UniProt P0A7D4); assay: ITC of ppGpp with PurA; assay type: binding, E. coli
[8] = system: Gsk variants R7A, F321A, K383A, S393A, Q396A; conditions: each of R7A, in vitro (Figure 2G)
[9] = biological target: the molecule itself; assay: SEC-MALS
[10] = biological target: the molecule itself; assay: SEC-MALS; remark: listed apart in the source
[11] = biological target: the molecule itself; assay: dynamic light scattering
[12] = biological target: the molecule itself; assay: crystal structure

PurA (adenylosuccinate synthase), sequence (P0A7D4 whole entry): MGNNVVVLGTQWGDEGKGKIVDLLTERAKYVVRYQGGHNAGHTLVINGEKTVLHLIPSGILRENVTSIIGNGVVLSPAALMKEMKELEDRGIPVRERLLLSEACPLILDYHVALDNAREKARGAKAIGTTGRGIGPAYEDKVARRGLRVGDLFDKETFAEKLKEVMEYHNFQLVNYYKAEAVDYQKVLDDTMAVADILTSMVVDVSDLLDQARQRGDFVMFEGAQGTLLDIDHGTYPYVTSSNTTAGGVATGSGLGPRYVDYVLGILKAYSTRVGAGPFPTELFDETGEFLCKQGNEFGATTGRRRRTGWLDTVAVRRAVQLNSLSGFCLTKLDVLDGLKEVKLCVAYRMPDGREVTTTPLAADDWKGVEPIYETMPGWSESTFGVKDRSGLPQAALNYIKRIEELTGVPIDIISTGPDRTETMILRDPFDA

**Q.** Which results are given for `Nc1nc2c(ncn2[C@@H]2O[C@H](COP(=O)(O)OP(=O)(O)O)[C@@H](O)[C@H]2O)c(=O)[nH]1` [GDP]?
**A.** sensitivity of Gsk(K383A) to inhibitor [1]: completely insensitive; feedback inhibition of Gsk [2]: provides feedback inhibition

**Q.** Which “gain in binding heat for guanosine when Gsk is bound to ppGpp” value ([3]; ITC, Gsk saturated with ppGpp vs without) does the source give for `Nc1nc2c(ncn2[C@@H]2O[C@H](CO)[C@@H](O)[C@H]2O)c(=O)[nH]1` [guanosine] here?
**A.** Its value is 8.7 kcal/mol.

**Q.** What about the Km ([2]; read-out: Km of Gsk for guanosine) of the same molecule?
**A.** Its Km is 8 µM.

**Q.** For `Nc1nc2c(ncn2[C@@H]2O[C@H](COP(=O)(O)OP(=O)(O)OP(=O)(O)O)[C@@H](OP(=O)(O)OP(=O)(O)O)[C@H]2O)c(=O)[nH]1` [pppGpp, Guanosine pentaphosphate], which “affinity for Gsk” value ([3]; ITC (Figure S2I, Table S1), compared with ppGpp) is on record?
**A.** Its value is “much weaker affinity”.

**Q.** With `O=c1[nH]cnc2c1ncn2[C@@H]1O[C@H](CO)[C@@H](O)[C@H]1O` [inosine] as the molecule, how does the Km ([2]; read-out: Km of Gsk for inosine) read?
**A.** Its Km is 1500 µM.

**Q.** With `Nc1nc2c(ncn2[C@@H]2O[C@H](COP(=O)(O)OP(=O)(O)O)[C@@H](OP(=O)(O)OP(=O)(O)O)[C@H]2O)c(=O)[nH]1` [ppGpp, Guanosine tetraphosphate] as the molecule, how does the Kd [3] read?
**A.** Its Kd is 0.1 µM.

**Q.** And the “affinity for Gsk relative to that for GDP (fold stronger)” value ([3]; ITC)?
**A.** The value was “about 20 fold”.

**Q.** What about the “gain in binding heat of ppGpp when Gsk is bound to guanosine” value ([3]; ITC, Gsk pre-saturated with guanosine vs without) of the same molecule?
**A.** Its value is 10.8 kcal/mol.

**Q.** And the “type of inhibition with respect to ATP” value ([4]; 1 mM inosine, varied ATP-Mg)?
**A.** The value was “mixed-type inhibitor”.

**Q.** What about the “type of inhibition with respect to inosine” value ([4]; Lineweaver-Burk plotting, 5 mM ATP-Mg, varied inosine) of the same molecule?
**A.** The value was “counter-competitive, or cooperative, inhibitor”.

**Q.** And the “fold inhibition of Gsk by ppGpp binding” value ([4]; guanosine kinase activity, 50 nM Gsk (Figure 3J))?
**A.** Its value is ~ 60 fold.

**Q.** And the “inhibition of inosine- and guanosine-kinase activities of Gsk” value ([4]; in vitro, PK-LDH coupled (Figure S1A))?
**A.** Its value is “potently inhibited”.

**Q.** What about the “inhibition of inosine-kinase activity compared with GDP” value [5] of the same molecule?
**A.** Its value is “stronger inhibitor than GDP”.

**Q.** What about the “inhibition of GuaB” value [6] of the same molecule?
**A.** Its value is “did not observe substantial inhibition; also recorded: could not reproduce the inhibition”.

**Q.** And the Kd [7]?
**A.** Its Kd is 61 µM.

**Q.** And the “sensitivity of Gsk(K383A) to inhibitor” value [1]?
**A.** The value was “completely insensitive”.

**Q.** And the “loss of sensitivity to ppGpp inhibition (fold less sensitive than WT Gsk)” value [8]?
**A.** Its value is “at least 5 fold”.

B1: Gsk, inosine-guanosine kinase (E. coli), wild type, traceless after Sumo release (enzyme, UniProt P0AEW6 1-434, looked up)
chain: MKFPGKRKSKHYFPVNARDPLLQQFQPENETSAAWVVGIDQTLVDIEAKVDDEFIERYGLSAGHSLVIEDDVAEALYQELKQKNLITHQFAGGTIGNTMHNYSVLADDRSVLLGVMCSNIEIGSYAYRYLCNTSSRTDLNYLQGVDGPIGRCFTLIGESGERTFAISPGHMNQLRAESIPEDVIAGASALVLTSYLVRCKPGEPMPEATMKAIEYAKKYNVPVVLTLGTKFVIAENPQWWQQFLKDHVSILAMNEDEAEALTGESDPLLASDKALDWVDLVLCTAGPIGLYMAGFTEDEAKRKTQHPLLPGAIAEFNQYEFSRAMRHKDCQNPLRVYSHIAPYMGGPEKIMNTNGAGDGALAALLHDITANSYHRSNVPNSSKHKFTWLTYSSLAQVCKYANRVSYQVLNQHSPRLTRGLPEREDSLEESYWDR
**Q.** With B1 as the molecule, how does the “stoichiometry N” value [9] read?
**A.** Its value is 2.

**Q.** What about the “stoichiometry N” value [10] of the same molecule?
**A.** Its value is 4.

B2: Gsk(L308S) (enzyme, E. coli, UniProt P0AEW6 1-434, looked up)
chain: MKFPGKRKSKHYFPVNARDPLLQQFQPENETSAAWVVGIDQTLVDIEAKVDDEFIERYGLSAGHSLVIEDDVAEALYQELKQKNLITHQFAGGTIGNTMHNYSVLADDRSVLLGVMCSNIEIGSYAYRYLCNTSSRTDLNYLQGVDGPIGRCFTLIGESGERTFAISPGHMNQLRAESIPEDVIAGASALVLTSYLVRCKPGEPMPEATMKAIEYAKKYNVPVVLTLGTKFVIAENPQWWQQFLKDHVSILAMNEDEAEALTGESDPLLASDKALDWVDLVLCTAGPIGLYMAGFTEDEAKRKTQHPSLPGAIAEFNQYEFSRAMRHKDCQNPLRVYSHIAPYMGGPEKIMNTNGAGDGALAALLHDITANSYHRSNVPNSSKHKFTWLTYSSLAQVCKYANRVSYQVLNQHSPRLTRGLPEREDSLEESYWDR
**Q.** Which “stoichiometry N” value [11] does the source give for B2 here?
**A.** Its value is 2.

B3: Gsk, inosine-guanosine kinase (E. coli), crystallisation construct with N-terminal Gly-Ser-His scar (enzyme)
chain: GSHMKFPGKRKSKHYFPVNARDPLLQQFQPENETSAAWVVGIDQTLVDIEAKVDDEFIERYGLSAGHSLVIEDDVAEALYQELKQKNLITHQFAGGTIGNTMHNYSVLADDRSVLLGVMCSNIEIGSYAYRYLCNTSSRTDLNYLQGVDGPIGRCFTLIGESGERTFAISPGHMNQLRAESIPEDVIAGASALVLTSYLVRCKPGEPMPEATMKAIEYAKKYNVPVVLTLGTKFVIAENPQWWQQFLKDHVSILAMNEDEAEALTGESDPLLASDKALDWVDLVLCTAGPIGLYMAGFTEDEAKRKTQHPLLPGAIAEFNQYEFSRAMRHKDCQNPLRVYSHIAPYMGGPEKIMNTNGAGDGALAALLHDITANSYHRSNVPNSSKHKFTWLTYSSLAQVCKYANRVSYQVLNQHSPRLTRGLPEREDSLEESYWDR
**Q.** Does B3 bind [12]?
**A.** Result: binds
